Laboratory results: ChEMBL document CHEMBL1136461 (Bioorg Med Chem Lett, 2003)
Values after ≈ are worked out from the molar mass of the structure shown.

Assays:
Enterococcus sp. = assay: Antibacterial activity against Enterococcus species; assay type: functional
Moraxella catarrhalis = assay: Antibacterial activity against Moraxella catarrhalis; assay type: functional
Mus musculus [1] = assay: Efficacy of compound to protect the methicillin resistant Staphylococcus aureus infected murine po administration; assay type: functional
Mus musculus [2] = assay: Efficacy of compound to protect the methicillin resistant […] infected murine sc administration; assay type: functional
Staphylococcus aureus [3] = assay: Antibacterial activity against methicillin resistant Staphylococcus aureus (MRSA); assay type: functional
Staphylococcus aureus [4] = assay: Antibacterial activity against methicillin susceptible Staphylococcus aureus (MSSA); assay type: functional
Streptococcus agalactiae = assay: Antibacterial activity against Streptococcus agalactiae; assay type: functional
Streptococcus pneumoniae [5] = assay: Antibacterial activity against Streptococcus pneumoniae (PEN-R); assay type: functional
Mus musculus [6] = assay: Efficacy of compound to protect the methicillin resistant Staphylococcus aureus infected murine iv administration; assay type: functional
Haemophilus influenzae = assay: Antibacterial activity against […] influenzae; assay type: functional
[7] = system: Streptococcus pyogenes (Streptococcus pyogenes); assay: Antibacterial activity against Streptococcus pyogenes
Streptococcus pneumoniae [8] = assay: Antibacterial activity against Staphylococcus pneumoniae (PEN-R)

| SMILES | MIC90 (Enterococcus sp.) [µg/mL] | MIC90 (Moraxella catarrhalis) [µg/mL] | ED50 (Mus musculus [1]) [mg/kg] | ED50 (Mus musculus [2]) [mg/kg] | MIC90 (Staphylococcus aureus [3]) [µg/mL] | MIC90 (Staphylococcus aureus [4]) [µg/mL] | MIC90 (Streptococcus agalactiae) [µg/mL] | MIC90 (Streptococcus pneumoniae [5]) [µg/mL] | ED50 (Mus musculus [6]) [mg/kg] | MIC90 (Haemophilus influenzae) [µg/mL] | MIC90 [7] [µg/mL] | MIC90 (Streptococcus pneumoniae [8]) [µg/mL] |
| --- | --- | --- | --- | --- | --- | --- | --- | --- | --- | --- | --- | --- |
| COc1cc(Cc2cnc(N)nc2N)c2c(c1OC)OC(C1CC1)C=C2 (configuration not stated) | 0.12 (≈ 0.339 µM) | 4 (≈ 11.3 µM) | 17 | 20 | 0.06 (≈ 0.169 µM) | 0.06 (≈ 0.169 µM) | 0.5 (≈ 1.41 µM) | 4 (≈ 11.3 µM) | 4.3 | 0.5 (≈ 1.41 µM) | 0.03 (≈ 0.0846 µM) |  |
| CC(=O)NC[C@H]1CN(c2ccc(N3CCOCC3)c(F)c2)C(=O)O1 [LINEZOLID] | 4 (≈ 11.9 µM) | 8 (≈ 23.7 µM) |  |  | 8 (≈ 23.7 µM) | 8 (≈ 23.7 µM) | 2 (≈ 5.93 µM) | 2 (≈ 5.93 µM) |  | 64 (≈ 190 µM) | 2 (≈ 5.93 µM) |  |
| COc1cc(Cc2cnc(N)nc2N)cc(OC)c1OC [TRIMETHOPRIM] | 8 (≈ 27.6 µM) | 128 (≈ 441 µM) |  | 60 | 8 (≈ 27.6 µM) | 16 (≈ 55.1 µM) | 128 (≈ 441 µM) |  | 15 | 1 (≈ 3.44 µM) | 64 (≈ 220 µM) | > 128 |
| CN[C@H](CC(C)C)C(=O)N[C@H]1C(=O)N[C@@H](CC(N)=O)C(=O)N[C@H]2C(=O)N[C@H]3C(=O)N[C@H](C(=O)N[C@H](C(=O)O)c4cc(O)cc(O)c4-c4cc3ccc4O)[C@H](O)c3ccc(c(Cl)c3)Oc3cc2cc(c3O[C@@H]2O[C@H](CO)[C@@H](O)[C@H](O)[C@H]2O[C@H]2C[C@](C)(N)[C@H](O)[C@H](C)O2)Oc2ccc(cc2Cl)[C@H]1O [VANCOMYCIN] | 2 (≈ 1.38 µM) | 64 (≈ 44.2 µM) |  |  | 1 (≈ 0.69 µM) | 1 (≈ 0.69 µM) | 0.5 (≈ 0.345 µM) | 1 (≈ 0.69 µM) |  | 128 (≈ 88.3 µM) | 1 (≈ 0.69 µM) |  |
